Experimental data from ChEMBL document CHEMBL1150979, “DERIVATIVES OF 4-AMINO-PYRIDINE AS SELECTIVE THROMBIN INHIBITORS” (Bioorg Med Chem Lett, 1997).
pKi: −log10 of the molar value.

Columns and labels:
Prothrombin = Prothrombin (Homo sapiens, UniProt P00734)
Description: Tested for the Inhibition of the catalytic activity of human Thrombin at 25 degree C and pH 7.5.

Serine protease 1 = molecular target: T1, Serine protease 1 (Bos taurus, UniProt P00760); experiment: Tested for the Inhibition of the catalytic activity of bovine trypsin at 25 degree C and pH 7.5.
T1 sequence (P00760 whole entry): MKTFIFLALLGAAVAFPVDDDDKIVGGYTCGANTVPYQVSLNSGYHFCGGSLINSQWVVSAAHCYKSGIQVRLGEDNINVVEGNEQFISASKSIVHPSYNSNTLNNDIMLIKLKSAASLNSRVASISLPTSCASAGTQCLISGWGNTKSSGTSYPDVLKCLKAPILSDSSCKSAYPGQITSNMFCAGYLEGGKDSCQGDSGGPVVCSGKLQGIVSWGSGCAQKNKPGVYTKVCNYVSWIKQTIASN

Plasminogen = Plasminogen (Homo sapiens, UniProt P00747); experiment: Tested for the Inhibition of the catalytic activity of human plasmin at 25 degree C and pH 7.5.
Sequence of Plasminogen (P00747 97-580 limits assumed): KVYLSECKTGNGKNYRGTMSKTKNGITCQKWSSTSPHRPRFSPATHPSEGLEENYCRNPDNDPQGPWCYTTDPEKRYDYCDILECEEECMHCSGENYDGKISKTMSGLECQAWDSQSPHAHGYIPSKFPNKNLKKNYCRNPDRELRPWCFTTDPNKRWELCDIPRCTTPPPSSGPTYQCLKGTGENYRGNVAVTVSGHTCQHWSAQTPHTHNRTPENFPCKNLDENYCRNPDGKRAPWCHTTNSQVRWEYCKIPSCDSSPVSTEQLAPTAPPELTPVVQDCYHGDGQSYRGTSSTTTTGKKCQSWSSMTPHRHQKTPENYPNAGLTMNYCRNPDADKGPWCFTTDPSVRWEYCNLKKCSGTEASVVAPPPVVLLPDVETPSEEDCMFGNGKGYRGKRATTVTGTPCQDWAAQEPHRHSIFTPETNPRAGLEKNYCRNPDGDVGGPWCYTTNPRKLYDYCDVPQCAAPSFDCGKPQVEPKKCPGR
Sequence of Plasminogen (P00747 581-810 limits assumed): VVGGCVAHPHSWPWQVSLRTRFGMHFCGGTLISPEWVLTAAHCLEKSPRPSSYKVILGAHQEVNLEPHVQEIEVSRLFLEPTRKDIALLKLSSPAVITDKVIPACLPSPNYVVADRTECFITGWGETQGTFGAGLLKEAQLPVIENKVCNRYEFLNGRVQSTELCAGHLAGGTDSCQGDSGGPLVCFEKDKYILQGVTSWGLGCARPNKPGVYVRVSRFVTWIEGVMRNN

Row | pKi (Prothrombin) | pKi (Serine protease 1) | pKi (Plasminogen) | SMILES
1 | 4.52 | < 3.30 | < 3.30 | Cc1cccc(OCCNc2ccncc2)c1
2 | 5.15 | < 3.30 | < 3.30 | O=S(=O)(Nc1cccc(OCCNc2ccncc2)c1)c1ccc2ccccc2c1
3 | 6.15 | < 3.30 | < 3.30 | O=S(=O)(Nc1cccc(OCCNc2ccncc2)c1)c1ccc(Cl)cc1
4 | 3.52 | < 3.30 | < 3.30 | O=C(CNS(=O)(=O)c1ccc2ccccc2c1)N[C@@H](CCNc1ccncc1)C(=O)N1CCCCC1
5 | 5.70 | < 3.30 | < 3.30 | O=C(CNS(=O)(=O)c1ccc(Cl)cc1)N[C@H](CCNc1ccncc1)C(=O)N1CCCCC1
6 | 6.52 | < 3.30 | < 3.30 | O=S(=O)(Nc1cccc(OCCNc2ccncc2)c1)c1ccccc1
7 | < 3.30 | < 3.30 | < 3.30 | OCCNc1ccncc1
8 | 5.82 | 5.77 | 4.47 | N=C(N)c1ccc(COc2cccc(CCNS(=O)(=O)c3ccc(Cl)cc3)c2)cc1
9 | 6.70 | < 3.30 | < 3.30 | O=C(CNS(=O)(=O)c1ccc2ccccc2c1)N[C@H](CCNc1ccncc1)C(=O)N1CCCCC1
10 | 5.55 | < 3.30 | < 3.30 | O=S(=O)(NCCc1cccc(OCCNc2ccncc2)c1)c1ccc(Cl)cc1
11 | 5.00 | < 3.30 | < 3.30 | O=C(CNS(=O)(=O)c1ccccc1)N[C@H](CCNc1ccncc1)C(=O)N1CCCCC1
12 | 7.15 | < 3.30 | < 3.30 | CN(c1cccc(OCCNc2ccncc2)c1)S(=O)(=O)c1ccccc1
13 | 3.92 | < 3.30 | < 3.30 | c1ccc(OCCNc2ccncc2)cc1

Row | SMILES | pKi (Prothrombin) | pKi (Serine protease 1) | pKi (Plasminogen)
14 | Nc1ccncc1 [DALFAMPRIDINE] | < 2.70 | < 2.70 | < 2.70
